Data reported in the NIST ThermoML archive (doi:10.1016/j.fluid.2013.10.022).
Numbers after ± are expanded uncertainties.

How the values were obtained:
[1] = 298.2 K; 101.33 kPa; Liquid; Vibrating tube method
[2] = refractive index (Na D-line) (dimensionless); details: 298.2 K; 101.33 kPa; Liquid; Standard Abbe refractometry

SMILES	mass density [1]	refractive index [2]
CCCCC(CC)CO (configuration not stated) [2-ethyl-1-hexanol]	830.22 ± 0.24 kg/m3	1.4293 ± 0.0008
CCCC(=O)O [butanoic acid]	952.68 ± 0.23 kg/m3	1.3977 ± 0.0008
CCCCCCCCO [octan-1-ol]	821.69 ± 0.24 kg/m3	1.4276 ± 0.0008
O [water]	–	1.3324 ± 0.0008
